Experimental data from PubChem BioAssay AID651703 (Broad Institute, 2012).

target: Transforming acidic coiled-coil-containing protein 3 (Homo sapiens) (UniProt Q9Y6A5); assay: inhibition of ARNT PAS-B/TACC3 complex formation – biochemical, AlphaScreen, cherry-picked samples, confirmation (AID 651703); conditions: AlphaScreen His-ARNT PAS-B / GST-TACC3 binding, luminescence;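 further: TACC3 partner is the GST-tagged E629A mutant dimer; hits lower the signal meaning they disrupt ARNT binding to TACC3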

AC50, active:
O=C(Nc1nnc(-c2ccco2)o1)c1ccc(N2C(=O)CCC2=O)cc1 22.8 µM, Cc1ccc(Cn2cccc(NS(C)(=O)=O)c2=O)cc1 64.7 µM, c1ccc(-c2n[nH]c(-c3ccccn3)n2)nc1 < 0.5 µM, C/C(=N\NC(=O)C(c1ccccc1)c1ccccc1)c1ccc(O)cc1 43.1 µM, CCC(C)c1c(N)n(S(=O)(=O)c2ccc(C)cc2)oc1=O (stereo not drawn) 44.1 µM, c1ccc(-c2nnc(-c3ccccn3)nc2NCCc2ccccn2)cc1 < 0.5 µM, CC(C)(C)CCNC(=O)c1cc(-c2ccccc2)on1 21.5 µM, Cc1ccc(S(=O)(=O)CCC(=O)Nc2nc(-c3ccccn3)cs2)cc1 10.5 µM, O=c1cc(CSc2ccc(Cl)cc2)nc(-c2ccccn2)[nH]1 3.69 µM, CCOc1ccc(N(CC(=O)Nc2ccc(OC)cc2OC)S(=O)(=O)c2c(C)[nH]c(=O)[nH]c2=O)cc1 27.6 µM, O=C(Nc1nc(-c2ccccn2)cs1)C1CCCC1 15.5 µM, Cc1nc2ccccc2n1CC(=O)c1ccc(O)c(O)c1 49.8 µM, c1ccc(-c2nc3ccccn3c2NC2CCCC2)nc1 13.9 µM, C/C=C/c1ccc([C@H]2[C@@H](CO)N(Cc3ccccn3)[C@H]2CNC(=O)CC)cc1 66.7 µM, O=C(N[C@H]1CC[C@@H](CCn2cc(-c3ccccn3)nn2)O[C@H]1CO)c1ccc(F)cc1 12.6 µM, CNc1nc(-c2ccccn2)nnc1-c1ccccc1 < 0.5 µM, O=C(NC[C@@H]1[C@H](c2ccccc2)[C@H](CO)N1Cc1ccccn1)C1CCC1 28.2 µM, Cc1ccc(Nc2c(-c3ccccn3)nc3cc(C)ccn23)cc1 3.02 µM, O=C(N/N=C/C=C/c1ccco1)c1cnccn1 55.4 µM, NC(=O)CSc1nnc(-c2ccc(O)cc2)n1Cc1ccco1 40.8 µM, O=S(=O)(c1ccccc1)N1C[C@H]2[C@@H](c3ccccc31)[C@@H](CO)N2Cc1ccccn1 52.3 µM, O=C(N[C@H]1CC[C@@H](CCn2cc(-c3ccccn3)nn2)O[C@@H]1CO)c1cccnc1 9.19 µM, O=C(N[C@@H]1CC[C@H](CCn2cc(-c3ccccn3)nn2)O[C@H]1CO)c1ccccc1 27.6 µM, NC(CO)C(=O)NNCc1ccc(O)c(O)c1O (stereo not drawn) 13.3 µM, C[C@H](CO)N1C[C@H](C)[C@@H](CN(C)S(=O)(=O)c2ccc(Cl)cc2)Oc2c(NC(=O)Nc3cccc4ccccc34)cccc2C1=O 62 µM, Cc1nnc(-c2ccccc2)c(=O)n1/N=C/c1c(O)ccc2ccccc12 49.2 µM, N#CC1=C(N)Oc2c(ccc3cccnc23)C1c1ccccc1 (stereo not drawn) 17.7 µM, CCOc1cc(/C=C2\SC(=N)N(c3nccs3)C2=O)ccc1OCCN1CCOCC1 35 µM, O=C(CN1C(=O)C2C3C=CC(C3)C2C1=O)Nc1nc(-c2ccccn2)cs1 (stereo not drawn) 6.76 µM, COc1ccc(NC(=O)Nc2ccc3c(c2)CC(=O)N([C@H](C)CO)C[C@H](C)[C@@H](CN(C)Cc2ccc(Oc4ccccc4)cc2)O3)cc1 23.6 µM, Cc1c(NC(=O)CSc2cccc3cccnc23)c(=O)n(-c2ccccc2)n1C 3.6 µM, CSc1ccccc1NC(=O)CN(C)C(=O)COc1cccc2cccnc12 13.8 µM, NNc1nnc(-c2ccccc2)c(-c2ccccc2)n1 8.66 µM, Cc1[nH][nH]c(=O)c1C(c1c(C)[nH][nH]c1=O)c1cn(Cc2cccc3ccccc23)c2ccccc12 19.9 µM, Cc1ccc(C)c(S(=O)(=O)N2CCCOC2CNC(=O)C(=O)NCCCn2ccnc2)c1 (stereo not drawn) 4.16 µM, CCOc1ccc(NC(=O)CC(NCc2ccccn2)C(=O)O)cc1 (stereo not drawn) < 0.5 µM, O=C(c1ccccn1)N1CC[C@@H]2[C@H]1c1cc(Br)ccc1N[C@@H]2CO 27.7 µM, O=C(CSc1nnc(-c2ccccn2)o1)Nc1ccccc1Cl 9.92 µM
